Measured values published in patent publication US20180214395A1 (priority 2017, published 2018).

Experiment: SAD study: cardiac safety (ECG, telemetry, QTcF prolongation)

## CCC(=O)C(C[C@H](C)N(C)C)(c1ccccc1)c1ccccc1 [d-methadone]
100 mg, subject 9056, 0.5 h
  QTcF Reading 1: 415 ms
  QTcF Reading 2: 424 ms
  QTcF Reading 3: 436 ms
100 mg, subject 9056, 2 h
  QTcF Average: 439 ms
  QTcF Reading 1: 445 ms
  QTcF Reading 2: 426 ms
  QTcF Reading 3: 446 ms
100 mg, subject 9056, 3 h
  QTcF Average: 442 ms
  QTcF Reading 1: 453 ms
  QTcF Reading 2: 443 ms
  QTcF Reading 3: 429 ms
100 mg, subject 9056, 5 h
  QTcF Average: 429 ms
  QTcF Reading 1: 419 ms
  QTcF Reading 2: 448 ms
  QTcF Reading 3: 419 ms
100 mg, subject 9056, 8 h
  QTcF Average: 446 ms
  QTcF Reading 1: 436 ms
  QTcF Reading 2: 457 ms
  QTcF Reading 3: 444 ms
100 mg, subject 9056, 24 h
  QTcF Average: 432 ms
  QTcF Reading 1: 432 ms
  QTcF Reading 2: 431 ms
  QTcF Reading 3: 434 ms
100 mg, subject 9056, 48 h
  QTcF Average: 422 ms
  QTcF Reading 1: 418 ms
  QTcF Reading 2: 433 ms
  QTcF Reading 3: 416 ms
150 mg (N = 6), 0.5 h
  Overall ECG result Abnormal, NCS: 1 (16.7) n (%)
  Overall ECG result Normal: 5 (83.3) n (%)
150 mg (N = 6), 1 h
  Overall ECG result Abnormal, NCS: 2 (33.3) n (%)
  Overall ECG result Normal: 4 (66.7) n (%)
150 mg (N = 6), 2 h
  Overall ECG result Abnormal, NCS: 2 (33.3) n (%)
  Overall ECG result Normal: 4 (66.7) n (%)
150 mg (N = 6), 3 h
  Overall ECG result Abnormal, NCS: 4 (66.7) n (%)
  Overall ECG result Normal: 2 (33.3) n (%)
150 mg (N = 6), 5 h
  Overall ECG result Abnormal, NCS: 2 (33.3) n (%)
  Overall ECG result Normal: 4 (66.7) n (%)
150 mg (N = 6), 8 h
  Overall ECG result Abnormal, NCS: 2 (33.3) n (%)
  Overall ECG result Normal: 4 (66.7) n (%)
150 mg (N = 6), 12 h
  Overall ECG result Abnormal, NCS: 2 (33.3) n (%)
  Overall ECG result Normal: 4 (66.7) n (%)
150 mg (N = 6), 24 h
  Overall ECG result Abnormal, NCS: 1 (16.7) n (%)
  Overall ECG result Normal: 5 (83.3) n (%)
150 mg (N = 6), 48 h
  Overall ECG result Abnormal, NCS: 1 (16.7) n (%)
  Overall ECG result Normal: 5 (83.3) n (%)
150 mg (N = 6), 72 h
  Overall ECG result Abnormal, NCS: 0 n (%)
  Overall ECG result Normal: 6 (100) n (%)
150 mg (N = 6), Visit 3
  Overall ECG result Abnormal, NCS: 0 n (%)
  Overall ECG result Normal: 6 (100) n (%)
150 mg, subject 9088, 3 h
  QTcF Average: 422 ms
  QTcF Reading 1: 410 ms
  QTcF Reading 2: 434 ms
  QTcF Reading 3: 423 ms
150 mg, subject 9088, 12 h
  QTcF Average: 430 ms
  QTcF Reading 1: 434 ms
  QTcF Reading 2: 427 ms
  QTcF Reading 3: 429 ms
150 mg, subject 9099, 3 h
  QTcF Average: 429 ms
  QTcF Reading 1: 420 ms
  QTcF Reading 2: 431 ms
  QTcF Reading 3: 435 ms
150 mg, subject 9099, 5 h
  QTcF Average: 436 ms
  QTcF Reading 1: 437 ms
  QTcF Reading 2: 440 ms
  QTcF Reading 3: 431 ms
200 mg (N = 1), 0.5 h
  Overall ECG result Abnormal, NCS: 1 (100) n (%)
  Overall ECG result Normal: 0 n (%)
200 mg (N = 1), 1 h
  Overall ECG result Abnormal, NCS: 1 (100) n (%)
  Overall ECG result Normal: 0 n (%)
200 mg (N = 1), 2 h
  Overall ECG result Abnormal, NCS: 1 (100) n (%)
  Overall ECG result Normal: 0 n (%)
200 mg (N = 1), 3 h
  Overall ECG result Abnormal, NCS: 1 (100) n (%)
  Overall ECG result Normal: 0 n (%)
200 mg (N = 1), 5 h
  Overall ECG result Abnormal, NCS: 1 (100) n (%)
  Overall ECG result Normal: 0 n (%)
200 mg (N = 1), 8 h
  Overall ECG result Abnormal, NCS: 0 n (%)
  Overall ECG result Normal: 1 (100) n (%)
200 mg (N = 1), 12 h
  Overall ECG result Abnormal, NCS: 0 n (%)
  Overall ECG result Normal: 1 (100) n (%)
200 mg (N = 1), 24 h
  Overall ECG result Abnormal, NCS: 1 (100) n (%)
  Overall ECG result Normal: 0 n (%)
200 mg (N = 1), 48 h
  Overall ECG result Abnormal, NCS: 0 n (%)
  Overall ECG result Normal: 1 (100) n (%)
200 mg (N = 1), 72 h
  Overall ECG result Abnormal, NCS: 0 n (%)
  Overall ECG result Normal: 1 (100) n (%)
200 mg (N = 1), Visit 3
  Overall ECG result Abnormal, NCS: 0 n (%)
  Overall ECG result Normal: 1 (100) n (%)
200 mg, subject 9078, 3 h
  QTcF Average: 426 ms
  QTcF Reading 1: 441 ms
  QTcF Reading 2: 422 ms
  QTcF Reading 3: 416 ms
SAD 5 mg, 1 h
  ECG abnormal result: QTcF prolongation: 1 (16.7) n (%)
SAD 5 mg, 2 h
  ECG abnormal result: QTcF prolongation: 2 (33.3) n (%)
SAD 5 mg, 3 h
  ECG abnormal result: QTcF prolongation: 1 (16.7) n (%)
SAD 5 mg, 5 h
  ECG abnormal result: QTcF prolongation: 2 (33.3) n (%)
SAD 5 mg, total
  ECG abnormal result: QTcF prolongation: 3 (50.0) n (%)
SAD 20 mg, total
  ECG abnormal result: QTcF prolongation: 0 n (%)
SAD 60 mg, total
  ECG abnormal result: QTcF prolongation: 0 n (%)
SAD 100 mg, 0.5 h
  ECG abnormal result: QTcF prolongation: 1 (16.7) n (%)
SAD 100 mg, 2 h
  ECG abnormal result: QTcF prolongation: 1 (16.7) n (%)
SAD 100 mg, 3 h
  ECG abnormal result: QTcF prolongation: 1 (16.7) n (%)
SAD 100 mg, 5 h
  ECG abnormal result: QTcF prolongation: 1 (16.7) n (%)
SAD 100 mg, 8 h
  ECG abnormal result: QTcF prolongation: 1 (16.7) n (%)
SAD 100 mg, 24 h
  ECG abnormal result: QTcF prolongation: 1 (16.7) n (%)
SAD 100 mg, 48 h
  ECG abnormal result: QTcF prolongation: 1 (16.7) n (%)
SAD 100 mg, total
  ECG abnormal result: QTcF prolongation: 1 (16.7) n (%)
SAD 150 mg, 3 h
  ECG abnormal result: QTcF prolongation: 2 (33.3) n (%)
SAD 150 mg, 5 h
  ECG abnormal result: QTcF prolongation: 1 (16.7) n (%)
SAD 150 mg, 12 h
  ECG abnormal result: QTcF prolongation: 1 (16.7) n (%)
SAD 150 mg, total
  ECG abnormal result: QTcF prolongation: 2 (33.3) n (%)
SAD 200 mg (N=1), 3 h
  ECG abnormal result: QTcF prolongation: 1 (100) n (%)
SAD 200 mg (N=1), total
  ECG abnormal result: QTcF prolongation: 1 (100) n (%)
SAD study
  Dose relation of QTcF prolongation: no dose-related effects were observed
SAD study, Subject 9056
  Maximum QTcF interval observed: 457 ms
